According to patent publication US20100285139A1, “PHARMACEUTICAL COMPOSITION FOR THE PROPHYLAXIS AND/OR SYMPTOMATIC TREATMENT OF CYSTIC FIBROSIS” (CYCNAD GMBH & CO., KG, priority 2007, published 2010):

How the values were obtained:
[1] = tested on: ceramide; assay: Pulmonary ceramide concentration in lung extracts of treated mice; type: in vivo
Procedure: The inhalation was carried out with the aid of an inhaler (Pariboy® SX). The liquid reservoir in this inhaler was connected to an air nozzle, whereby it was possible to produce a fine aerosol which was inhaled through a mask by the mice. For this, the noses of the experimental animals were pressed manually into the opening of the mask for 10 minutes. This permitted excellent control of the inhalation process. All mice were subjected to an inhalation process 3 times at an interval of 12 hours.
After killing the experimental animals, the lungs were removed, homogenized under liquid nitrogen and added to a mixture of chloroform, methanol and 1N hydrochloric acid (100:100:1, v/v/v). After addition of 200 μl of H2O, the samples were centrifuged for 5 minutes (14,000 rpm, rotations per minute). The lower phase was then collected, dried and subjected to an alkaline hydrolysis of diacylglycerol in 0.1 N methanolic potassium hydroxide solution at 37° C. for 60 minutes. The samples were extracted again, and the lower phase was dried and subsequently resuspended in 20 μl of a detergent solution (7.5% (w/v) of n-octylglucopyranoside, 5 mM cardiolipin in 1 mM diethylenetriaminepentaacetic acid (DTPA)). After an ultrasound treatment (10 minutes), the samples were added to 70 μl of a reaction mixture which contained 10 μl of diacylglycerol kinase (GE Healthcare Europe, Munich, Germany), 0.1 M imidazole/HCl (pH 6.6), 0.2 mM diethylenetriaminepentaacetic acid (pH 6.6), 70 mM sodium chloride, 17 mM magnesium chloride, 1.4 mM EGTA, 2 mM DTT, 1 μM ATP and 10 μCi of [^32P]γATP. The kinase reaction was carried out for 30 minutes at room temperature and subsequently ended by addition of 1 ml of chloroform:methanol:1 N HCl (100:100:1, v/v/v), 170 μl of buffered saline solution (135 mM sodium chloride, 1.5 mM calcium chloride, 0.5 mM magnesium chloride, 5.6 mM glucose, 10 mM HEPES, pH 7.2) and 30 μl of a 100 mM EDTA solution. The samples were then vortexed and the resulting phases were separated. […] The incorporation of [^32P] in ceramide was quantified by means of liquid scintillation counting, since the spots […]. The amounts of ceramide were determined by comparison with a standard curve using C16-ceramide as substrate.
(§1) Wild-type mice and Cftr-deficient mice were inhaled with a solution of 4 mg/l of amitriptyline, 12.5 mg/l of trimipramine, 9 mg/l of desipramine, 8 mg/l of chlorprothixene, 4.5 mg/l of fluoxetine, 5 mg/l of amlodipine and 35 mg/l of sertraline. […] The lungs were removed from the experimental animals 60 minutes after the inhalation, and the pulmonary ceramide concentration in the lung extracts was determined. […]

[2] = tested on: Pseudomonas aeruginosa; assay: Susceptibility to infection: Pseudomonas aeruginosa bacterial count in the lung after intranasal infection; type: in vivo, mice
Procedure: The bacteria were cultured for 14 to 14.5 hours on TSA agar plates (Becton Dickinson). Fresh plates were used for at most 2 weeks for this. The bacteria were then transferred to Erlenmeyer flasks in 40 ml of a prewarmed and sterile buffer (TSB, Becton Dickinson). The optical density (OD) or extinction was adjusted to 0.225 (corresponds to 5.5×10^8 CFU/ml) and the bacteria were incubated for 60 minutes at 37° C. with shaking at 125 rpm. The quality of the agar plates and of TSB and the shaking speed were crucial for the obtainment of reproducible results. In this way, it was possible to obtain a Pseudomonas aeruginosa population exactly in the early log phase (the bacteria replicated approximately by 10-fold within an incubation time of 60 minutes). The fact that the bacteria were bacteria of the early log phase was extremely important to obtain reproducible conditions for the subsequent infection with the experimental animals. The bacteria were centrifuged at 2800 rpm (1600×g) in a 50 ml tube. The supernatant was then carefully removed and the bacteria were resuspended in 10 ml of RPMI-1640, supplemented with 10 mM HEPES (pH 7.3). The suspension was transferred to a 15 ml tube and subsequently washed twice. Finally, the bacteria were resuspended in prewarmed HEPES/salt (HS; 132 mM NaCl, 20 mM HEPES (pH 7.4), 5 mM KCl, 1 mM CaCl2, 0.7 mM MgCl2, 0.8 mM MgSO4) and the bacterial optical density was determined. The bacteria were then diluted with prewarmed H/S to a concentration of 10^8 CFU/20 μl . The mice were then infected within the next 10 minutes. For this purpose, a syringe with a volume of 1 ml and a 30 gauge needle was used. The mice were anesthetized in ether for 10 to 15 seconds. Following this, the needle was immediately inserted 2 mm into the noses of the mice and the bacteria were carefully injected. Between the first and the last mouse which were infected, a time interval of at most 10 minutes was allowed to pass to avoid variations in the formation of viable bacterial colonies in this way. […] Subsequently, the number of bacteria in the lung was measured as a measure of the sensitivity of the mice to developing a Pseudomonas aeruginosa infection. […] The bacterial colonies were counted after 15 hours growth at 37° C. as a measure of the number of pulmonary bacteria and thus as a measure of an infection.
as §1, with “susceptibility to infection of the experimental animals” for “pulmonary ceramide concentration”, “relation to Pseudomonas aeruginosa” for “the lung extracts”

[3] = target: T1, acid sphingomyelinase (Mus musculus, UniProt Q04519); assay: Activity of acid sphingomyelinase in lung extracts of treated mice; type: in vivo
T1 construct: from tissue; host or cells: lung homogenate of wild-type and Cftr-deficient mice
T1 sequence (Q04519 45-627): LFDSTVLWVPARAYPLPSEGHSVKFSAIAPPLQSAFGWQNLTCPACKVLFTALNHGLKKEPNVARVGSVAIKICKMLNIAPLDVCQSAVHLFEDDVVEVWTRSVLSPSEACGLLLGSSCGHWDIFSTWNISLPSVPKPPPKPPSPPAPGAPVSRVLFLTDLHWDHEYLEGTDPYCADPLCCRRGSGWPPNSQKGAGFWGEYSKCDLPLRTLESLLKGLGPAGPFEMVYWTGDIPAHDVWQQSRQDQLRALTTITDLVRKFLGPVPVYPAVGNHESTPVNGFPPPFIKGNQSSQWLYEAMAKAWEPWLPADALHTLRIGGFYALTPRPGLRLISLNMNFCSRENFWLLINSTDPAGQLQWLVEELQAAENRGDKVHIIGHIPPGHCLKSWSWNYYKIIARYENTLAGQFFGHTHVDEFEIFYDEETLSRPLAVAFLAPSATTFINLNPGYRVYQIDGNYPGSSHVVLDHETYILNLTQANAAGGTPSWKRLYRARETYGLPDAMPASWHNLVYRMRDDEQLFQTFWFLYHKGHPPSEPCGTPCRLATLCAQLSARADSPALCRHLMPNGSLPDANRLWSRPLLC
Procedure: The inhalation was carried out with the aid of an inhaler (Pariboy® SX). The liquid reservoir in this inhaler was connected to an air nozzle, whereby it was possible to produce a fine aerosol which was inhaled through a mask by the mice. For this, the noses of the experimental animals were pressed manually into the opening of the mask for 10 minutes. This permitted excellent control of the inhalation process. All mice were subjected to an inhalation process 3 times at an interval of 12 hours. The lungs were shock-frozen, homogenized under liquid nitrogen and subsequently transferred to a buffer of 250 mM sodium acetate (pH 5.0), 1.3 mM EDTA and 1% NP40. The homogenizate was then subjected to ultrasound treatment (ultrasonic processor tip sonicator) a total of three times. Subsequently, an aliquot of the samples was diluted with 250 mM sodium acetate (pH 5.0), 1.3 mM EDTA 0.1% NP40 and incubated with 0.05 μCi of [^14C]sphingomyelin per sample (52 mCi/mmol; […] The radioactive sample of [^14C]sphingomyelin was dried, resuspended in 250 mM sodium acetate (pH 5.0), 1.3 mM EDTA and 0.1% NP40 and subsequently subjected to ultrasound treatment for 10 minutes, before it was added to the homogenized samples. The samples were incubated for 30 minutes in total at about 37° C. Subsequently, the enzymatic reaction was ended by extraction (extraction with a solvent mixture of chloroform and methanol in the volume ratio chloroform/methanol 2:1). The samples were then centrifuged and an aliquot of the aqueous phase was in each case subjected to scintillation counting to determine the release of [^14C]phosphorylcholine from [^14C] sphingomyelin. Wild-type mice and Cftr-deficient mice (Cftr-knockout mice) inhaled a solution of 4 mg/l of amitriptyline, 12.5 mg/l of trimipramine, 9 mg/l of desipramine, 8 mg/l of chlorprothixene, 4.5 mg/l of fluoxetine, 5 mg/l of amlodipine and 35 mg/l of sertraline. All substances were dissolved in water or DMSO for this and subsequently diluted at least 1:100 (for DMSO: at least 1:1000) in 0.9% sodium chloride solution. The mice inhaled the solutions for 10 minutes. An inhaler (Pariboy®) was used for the inhalation. In the course of the inhalation time, approximately 2 ml of the solutions administered were atomized. The inhalation was carried out a total of three times at intervals of 12 hours. The lungs were removed 60 minutes after the last inhalation, and the activity of the acid sphingomyelinase was determined in the lung extracts. Wild-type mice and Cftr-deficient mice were in each case inhaled 1 ml of an amitriptyline solution (4 mg/l of H2O) for 20 minutes with the aid of a customary pharmacy inhalation device. The amount of amitriptyline actually administered was therefore about 4 μg. In parallel to this, other wild-type mice and Cftr-deficient mice were in each case administered 100 μl of an amitriptyline solution (2.5 g/l of H2O), so that the amount of amitriptyline actually administered in these animals was 250 μg. The injections were administered twice daily over 2 days. In the case of the inhalative treatment, the lungs of the mice were extracted 60 minutes or 12 hours after ending the inhalation, where in the case of the 12-hour experiments the inhalation was repeated after 6 hours. In the case of the mice treated by an injection solution, their lungs were removed 12 hours after the last injection.

enzyme activity of acid sphingomyelinase in lung extracts ([3]; Cftr-deficient mice, 12 h after intraperitoneal injection of 250 micrograms, twice daily over 2 days): 151±17 pmol/min/mg of protein | enzyme activity of acid sphingomyelinase in lung extracts ([3]; Cftr-deficient mice, lungs extracted 60 min after inhalation of 1 ml amitriptyline solution (4 mg/l)): 148±17 pmol/min/mg of protein | enzyme activity of acid sphingomyelinase in lung extracts ([3]; Cftr-deficient mice, lungs extracted 12 h after inhalation of 1 ml amitriptyline solution (4 mg/l)): 167±9 pmol/min/mg of protein | enzyme activity of acid sphingomyelinase in lung extracts ([3]; wild-type mice, 12 h after intraperitoneal injection of 250 micrograms, twice daily over 2 days): 168±19 pmol/min/mg of protein | enzyme activity of acid sphingomyelinase in lung extracts ([3]; wild-type mice, lungs extracted 60 min after inhalation of 1 ml amitriptyline solution (4 mg/l)): 176±18 pmol/min/mg of protein | enzyme activity of acid sphingomyelinase in lung extracts ([3]; wild-type mice, lungs extracted 12 h after inhalation of 1 ml amitriptyline solution (4 mg/l)): 200±14 pmol/min/mg of protein
Structure (SMILES): CN(C)CCC=C1c2ccccc2CCc2ccccc21 [amitriptyline]
ceramide concentration in lung extracts ([1]; Cftr-deficient mice, 12 h after inhalation of 1 ml amitriptyline solution (4 mg/l)): 5.2±0.79 pmol/μg of protein | ceramide concentration in lung extracts ([1]; Cftr-deficient mice, parenterally treated, 12 h after intraperitoneal injection of 250 micrograms): 4.9±0.7 pmol/μg of protein | ceramide concentration in lung extracts ([1]; wild-type mice, 12 h after inhalation of 1 ml amitriptyline solution (4 mg/l)): 1.6±0.3 pmol/μg of protein | ceramide concentration in lung extracts ([1]; wild-type mice, parenterally treated, 12 h after intraperitoneal injection of 250 micrograms): 1.5±0.4 pmol/μg of protein | bacterial count in the lungs ([2]; Cftr-deficient mice, treated by inhalation (4 mg/l solution), 2 h after intranasal infection with 1×10^8 CFU P. aeruginosa strain 762): 12300±4075 CFU | bacterial count in the lungs ([2]; Cftr-deficient mice, treated by injection solution (250 micrograms i.p.), 2 h after intranasal infection): 11250±2360 CFU | bacterial count in the lungs ([2]; wild-type mice, treated by inhalation (4 mg/l solution), 2 h after intranasal infection with 1×10^8 CFU P. aeruginosa strain 762): 3600±2892 CFU | bacterial count in the lungs ([2]; wild-type mice, treated by injection solution (250 micrograms i.p.), 2 h after intranasal infection): 2780±1740 CFU
